US10405547B2, “Substituted cyclic amides as herbicides” (FMC Corporation, priority 2015, dated 2019)

Tests used:
Type in all cases: in vivo
[1] = system: barnyardgrass (Echinochloa crus-galli); experiment: Test A postemergence, barnyardgrass; conditions: 0 to 100 scale (0 no effect, 100 complete control)
Summary of the method: (§1)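 Visual injury scores (0 no effect to 100 complete control) taken about 10 days after treatment, relative to untreated plants. Treatments were directed soil spray at planting for preemergence, or foliar application to one- to two-leaf plants (2-10 cm) for postemergence, with surfactant-containing formulations in loam–sand pots.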

[2] = system: sedge, umbrella (small-flower umbrella sedge, Cyperus difformis); experiment: Test B flooded paddy test, umbrella sedge; conditions: applied to paddy water, visual rating after 13 to 15 days, scale 0 (no effect) to 100 (complete control)
Summary of the method: (§2)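 Flooded 3 cm over soil; compound into paddy water; depth kept constant. Greenhouse 13–15 d.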

[3] = system: blackgrass (Alopecurus myosuroides); experiment: Test A postemergence, blackgrass; conditions: 0 to 100 scale (0 no effect, 100 complete control)
Summary of the method: as §1

[4] = system: ragweed (common ragweed, Ambrosia elatior); experiment: Test A preemergence, ragweed; conditions: 0 to 100 scale (0 no effect, 100 complete control)
Summary of the method: as §1

[5] = system: barnyardgrass (Echinochloa crus-galli); experiment: Test B flooded paddy test, barnyardgrass; conditions: applied to paddy water, visual rating after 13 to 15 days, scale 0 (no effect) to 100 (complete control)
Summary of the method: as §2

[6] = system: galium (catchweed bedstraw, Galium aparine); experiment: Test A postemergence, galium; conditions: 0 to 100 scale (0 no effect, 100 complete control)
Summary of the method: as §1

kochia (Kochia scoparia) [7] = experiment: Test A preemergence, kochia; conditions: 0 to 100 scale (0 no effect, 100 complete control)
Summary of the method: as §1

[8] = system: wheat (Triticum aestivum); experiment: Test A postemergence, wheat; conditions: 0 to 100 scale (0 no effect, 100 complete control)
Summary of the method: as §1

[9] = system: ryegrass, Italian (Lolium multiflorum); experiment: Test A postemergence, Italian ryegrass; conditions: 0 to 100 scale (0 no effect, 100 complete control)
Summary of the method: as §1

[10] = system: barnyardgrass (Echinochloa crus-galli); experiment: Test A preemergence, barnyardgrass; conditions: 0 to 100 scale (0 no effect, 100 complete control)
Summary of the method: as §1

[11] = system: ragweed (common ragweed, Ambrosia elatior); experiment: Test A postemergence, ragweed; conditions: 0 to 100 scale (0 no effect, 100 complete control)
Summary of the method: as §1

[12] = system: foxtail, giant (Setaria faberii); experiment: Test A postemergence, giant foxtail; conditions: 0 to 100 scale (0 no effect, 100 complete control)
Summary of the method: as §1

kochia (Kochia scoparia) [13] = experiment: Test A postemergence, kochia; conditions: 0 to 100 scale (0 no effect, 100 complete control)
Summary of the method: as §1

rice (Oryza sativa) = experiment: Test B flooded paddy test, rice; conditions: applied to paddy water, visual rating after 13 to 15 days, scale 0 (no effect) to 100 (complete control)
Summary of the method: as §2

[14] = system: pigweed (Amaranthus retroflexus); experiment: Test A postemergence, pigweed; conditions: 0 to 100 scale (0 no effect, 100 complete control)
Summary of the method: as §1

[15] = system: foxtail, giant (Setaria faberii); experiment: Test A preemergence, giant foxtail; conditions: 0 to 100 scale (0 no effect, 100 complete control)
Summary of the method: as §1

[16] = system: pigweed (Amaranthus retroflexus); experiment: Test A preemergence, pigweed; conditions: 0 to 100 scale (0 no effect, 100 complete control)
Summary of the method: as §1

corn (Zea mays) = experiment: Test A postemergence, corn; conditions: 0 to 100 scale (0 no effect, 100 complete control)
Summary of the method: as §1

[17] = system: ducksalad (Heteranthera limosa); experiment: Test B flooded paddy test, ducksalad; conditions: applied to paddy water, visual rating after 13 to 15 days, scale 0 (no effect) to 100 (complete control)
Summary of the method: as §2

[18] = system: ryegrass, Italian (Lolium multiflorum); experiment: Test A preemergence, Italian ryegrass; conditions: 0 to 100 scale (0 no effect, 100 complete control)
Summary of the method: as §1

[19] = 125 g ai/ha, visual injury, approximately 10 days
[20] = 500 g ai/ha, visual injury, approximately 10 days

SMILES | Plant response rating, Barnyardgrass [1, 19] | Plant response rating, Blackgrass [3, 19] | Plant response rating, Ragweed ([4]; 125 g ai/ha) | Plant response rating, Galium [6, 19] | Plant response rating, Kochia (kochia (Kochia scoparia) [7]; 125 g ai/ha) | Plant response rating, Wheat [8, 19] | Plant response rating, Ryegrass, Italian [9, 19] | Plant response rating, Barnyardgrass ([10]; 125 g ai/ha) | Plant response rating, Ragweed [11, 19] | Plant response rating, Foxtail, Giant [12, 19] | Plant response rating, Kochia (kochia (Kochia scoparia) [13]; [19]) | Plant response rating, Pigweed [14, 19] | Plant response rating, Foxtail, Giant ([15]; 125 g ai/ha) | Plant response rating, Pigweed ([16]; 125 g ai/ha) | Plant response rating, Corn (corn (Zea mays); [19]) | Plant response rating, Ryegrass, Italian ([18]; 125 g ai/ha) | Plant response rating, Sedge, Umbrella (Flood) ([2]; 250 g ai/ha) | Plant response rating, Barnyardgrass (Flood) ([5]; 250 g ai/ha) | Plant response rating, Rice (Flood) (rice (Oryza sativa); 250 g ai/ha) | Plant response rating, Ducksalad (Flood) ([17]; 250 g ai/ha) | further results
O=C1NCC(c2cccc(Cn3ccc(C(F)(F)F)n3)c2)C1C(=O)Nc1ccccc1F (stereo not drawn) [Compound 23] | 0 | 0 | 0 | 0 | 0 | 0 | 0 | 0 | 0 | 0 | 0 | 0 | 20 | 0 | 0 | 0 | – | – | – | – | Plant response rating, Barnyardgrass [1, 20]: 30; Plant response rating, Sedge, Umbrella (Flood) ([2]; 500 g ai/ha): 0; Plant response rating, Blackgrass [3, 20]: 0; Plant response rating, Ragweed ([4]; 500 g ai/ha): 0; Plant response rating, Barnyardgrass (Flood) ([5]; 500 g ai/ha): 0; Plant response rating, Galium [6, 20]: 0; Plant response rating, Kochia (kochia (Kochia scoparia) [7]; 500 g ai/ha): 20; Plant response rating, Wheat [8, 20]: 0; Plant response rating, Ryegrass, Italian [9, 20]: 0; Plant response rating, Barnyardgrass ([10]; 500 g ai/ha): 20; Plant response rating, Ragweed [11, 20]: 0; Plant response rating, Foxtail, Giant [12, 20]: 20; Plant response rating, Kochia (kochia (Kochia scoparia) [13]; [20]): 0; Plant response rating, Rice (Flood) (rice (Oryza sativa); 500 g ai/ha): 0; Plant response rating, Pigweed [14, 20]: 0; Plant response rating, Foxtail, Giant ([15]; 500 g ai/ha): 50; Plant response rating, Pigweed ([16]; 500 g ai/ha): 0; Plant response rating, Corn (corn (Zea mays); [20]): 0; Plant response rating, Ducksalad (Flood) ([17]; 500 g ai/ha): 0; Plant response rating, Ryegrass, Italian ([18]; 500 g ai/ha): 0
CN1CC(c2cccc(Oc3ncc(F)cn3)c2)C(C(=O)Nc2ccccc2F)C1=O (single isomer, unassigned) [Compound 36] | 90 | 20 | 0 | 40 | 0 | 0 | 0 | 90 | 0 | 80 | 0 | 30 | 90 | 0 | 40 | 0 | 0 | 60 | 30 | 0 | Plant response rating, Barnyardgrass [1, 20]: 90; Plant response rating, Blackgrass [3, 20]: 50; Plant response rating, Ragweed ([4]; 500 g ai/ha): 50; Plant response rating, Galium [6, 20]: 70; Plant response rating, Kochia (kochia (Kochia scoparia) [7]; 500 g ai/ha): 40; Plant response rating, Wheat [8, 20]: 60; Plant response rating, Ryegrass, Italian [9, 20]: 50; Plant response rating, Barnyardgrass ([10]; 500 g ai/ha): 90; Plant response rating, Ragweed [11, 20]: 40; Plant response rating, Foxtail, Giant [12, 20]: 80; Plant response rating, Kochia (kochia (Kochia scoparia) [13]; [20]): 50; Plant response rating, Pigweed [14, 20]: 50; Plant response rating, Foxtail, Giant ([15]; 500 g ai/ha): 90; Plant response rating, Pigweed ([16]; 500 g ai/ha): 40; Plant response rating, Corn (corn (Zea mays); [20]): 90; Plant response rating, Ryegrass, Italian ([18]; 500 g ai/ha): 90
CN1CC(c2cccc(Oc3ccc(F)cn3)c2)C(C(=O)Nc2cccc(C#N)c2F)C1=O (single isomer, unassigned) [Compound 88] | 80 | 0 | 0 | 40 | 30 | 60 | 0 | 30 | 0 | 70 | 30 | 20 | 90 | 20 | 20 | 20 | 0 | 0 | 0 | 50 | Plant response rating, Barnyardgrass ([1]; 31 g ai/ha): 30; Plant response rating, Blackgrass ([3]; 31 g ai/ha): 0; Plant response rating, Ragweed ([4]; 31 g ai/ha): 0; Plant response rating, Galium ([6]; 31 g ai/ha): 30; Plant response rating, Kochia (kochia (Kochia scoparia) [7]; 31 g ai/ha): 0; Plant response rating, Wheat ([8]; 31 g ai/ha): 0; Plant response rating, Ryegrass, Italian ([9]; 31 g ai/ha): 0; Plant response rating, Barnyardgrass ([10]; 31 g ai/ha): 0; Plant response rating, Ragweed ([11]; 31 g ai/ha): 0; Plant response rating, Foxtail, Giant ([12]; 31 g ai/ha): 30; Plant response rating, Kochia (kochia (Kochia scoparia) [13]; 31 g ai/ha): 0; Plant response rating, Pigweed ([14]; 31 g ai/ha): 0; Plant response rating, Foxtail, Giant ([15]; 31 g ai/ha): 30; Plant response rating, Pigweed ([16]; 31 g ai/ha): 0; Plant response rating, Corn (corn (Zea mays); 31 g ai/ha): 0; Plant response rating, Ryegrass, Italian ([18]; 31 g ai/ha): 0
CN1CC(c2cccc(OC(F)(F)C(F)OC(F)(F)F)c2)C(C(=O)Nc2cccc(F)c2F)C1=O (stereo not drawn) [Compound 48] | 20 | 0 | 0 | 60 | 0 | 0 | 0 | 80 | 0 | 60 | 30 | 60 | 80 | 70 | 0 | 30 | 0 | 0 | 0 | 80 | Plant response rating, Barnyardgrass [1, 20]: 50; Plant response rating, Blackgrass [3, 20]: 0; Plant response rating, Ragweed ([4]; 500 g ai/ha): 0; Plant response rating, Galium [6, 20]: 60; Plant response rating, Kochia (kochia (Kochia scoparia) [7]; 500 g ai/ha): 20; Plant response rating, Wheat [8, 20]: 30; Plant response rating, Ryegrass, Italian [9, 20]: 40; Plant response rating, Barnyardgrass ([10]; 500 g ai/ha): 90; Plant response rating, Ragweed [11, 20]: 0; Plant response rating, Foxtail, Giant [12, 20]: 80; Plant response rating, Kochia (kochia (Kochia scoparia) [13]; [20]): 70; Plant response rating, Pigweed [14, 20]: 90; Plant response rating, Foxtail, Giant ([15]; 500 g ai/ha): 90; Plant response rating, Pigweed ([16]; 500 g ai/ha): 70; Plant response rating, Corn (corn (Zea mays); [20]): 40; Plant response rating, Ryegrass, Italian ([18]; 500 g ai/ha): 30
O=C1NCC(c2cccc(CN3CCOCC3)c2)C1C(=O)Nc1cccc(F)c1F (single isomer, unassigned) [Compound 90] | 0 | 0 | 0 | 0 | 0 | 0 | 0 | 0 | 0 | 0 | 0 | 0 | 0 | 0 | 0 | 0 | 0 | 0 | 0 | 0 | Plant response rating, Barnyardgrass ([1]; 31 g ai/ha): 0; Plant response rating, Blackgrass ([3]; 31 g ai/ha): 0; Plant response rating, Ragweed ([4]; 31 g ai/ha): 0; Plant response rating, Galium ([6]; 31 g ai/ha): 0; Plant response rating, Kochia (kochia (Kochia scoparia) [7]; 31 g ai/ha): 0; Plant response rating, Wheat ([8]; 31 g ai/ha): 0; Plant response rating, Ryegrass, Italian ([9]; 31 g ai/ha): 0; Plant response rating, Barnyardgrass ([10]; 31 g ai/ha): 0; Plant response rating, Ragweed ([11]; 31 g ai/ha): 0; Plant response rating, Foxtail, Giant ([12]; 31 g ai/ha): 0; Plant response rating, Kochia (kochia (Kochia scoparia) [13]; 31 g ai/ha): 0; Plant response rating, Pigweed ([14]; 31 g ai/ha): 0; Plant response rating, Foxtail, Giant ([15]; 31 g ai/ha): 0; Plant response rating, Pigweed ([16]; 31 g ai/ha): 0; Plant response rating, Corn (corn (Zea mays); 31 g ai/ha): 0; Plant response rating, Ryegrass, Italian ([18]; 31 g ai/ha): 0
